Tests used:
MelBSt WT = target: T1, MelBSt WT (Salmonella typhimurium, UniProt P30878); assay: [3H]Melibiose transport time course with DW2 intact cells expressing MelBSt WT; type: cell-based; settings: 0.4 mM [3H]melibiose
T1 construct: Cys scanning mutagenesis for the full-length MelBSt; expressed in transfected cells; host or cells: E. coli DW2 (melA+, melB-, lacZ-Y-)
Experimental: (§1) Fig. 1 Functional characterizations. a [^3H] Melibiose transport time course with intact cells. E. coli DW2 strain (melB^−, lacZ^−Y^−) expressed with the WT, D59C, or D59A MelBSt mutants were subjected to [^3H]melibiose active transport assay at 0.4 mM and 10 mCi/mmol in the presence of 20 mM or 100 mM NaCl or LiCl by a fast filtration method. Inset, melibiose fermentation assay. Transformants with DW2 strain were plated on MacConkey agar plates containing 30 mM melibiose as the sole carbohydrate source and pH sensor neutral red, and incubated at 37 °C for 16–18 h before imaging. Number of tests = 3, from different batch of cells or duplicate measurements from same batch of sample. b Ligand binding by Trp→dansyl galactoside (D^2G) FRET assay. Purified proteins at 1 μM concentration in 20 mM Tris-HCl, pH 7.5, 100 mM CholCl, 10% glycerol, and 0.03% UDM were subjected to steady-state fluorescence measurements as described in Methods. On the time-trace, 1.8 μL of 1 mM D^2G at 10 μM was added into 180 μL of protein solutions at 1-min point, followed by supplying 10 μL of 5 mM DDMB or 5 mM α-NPG to displace the bound D^2G. For testing Na^+ or Li^+ binding, they are added into the solution before displacement with the second sugar. The structure of DDMB or α-NPG is shown in a chair form, and the carbon positions are labeled. Glycosidic bonds are indicated by arrows. Both are α-galactosides containing a substituent at the anomeric carbon-1. The data were from duplicate measurements.
The overexpression of MelBSt was carried out in the E. coli DW2 strain (melA^+, melB^−, and lacZ^−Y^−) from a constitutive expression plasmid pK95ΔAH/MelBSt/CHis10[9],[28],[33]. The D59C or D59A mutant with Cys or Ala at the position 59, respectively, was constructed previously[9] or in this study by QuikChange Site-Directed Mutagenesis kit and confirmed by DNA sequencing analysis. E. coli DW2 cells containing a given plasmid were grown in Luria-Bertani (LB) broth (5 g yeast extract and 10 g tryptone per liter with 171 mM NaCl) with 100 mg/L of ampicillin in a 37 °C shaker. The overnight cultures were diluted by 5% with LB broth supplemented with 0.5% glycerol and 100 mg/L of ampicillin, and constitutive overexpression was obtained by shaking at 30 °C for another 5 h.
E. coli DW2 cells expressing MelBSt were washed with 100 mM KPi, pH 7.5, to remove Na^+ contamination as described previously. The cell pellets were resuspended with the assay buffer (100 mM KPi, pH 7.5, 10 mM MgSO4) and adjusted to A420 of 10 (∼0.7 mg protein/ml). Using a fast filtration, transport time course at 0.4 mM melibiose (at specific activity of 10 mCi/mmol) was carried out in the absence or presence of NaCl or LiCl at 20 mM or 100 mM, respectively, and intracellular melibiose was determined as described previously.

D59C MelBSt = target: T2, D59C MelBSt (Salmonella typhimurium, UniProt P30878, D59C); assay: Melibiose fermentation on MacConkey agar (DW2 transformants); type: cell-based; settings: 30 mM melibiose, 37 °C
T2 construct: Cys scanning mutagenesis for the full-length MelBSt; His10 (C); made in house; host or cells: E. coli DW2
T2 sequence (P30878 whole entry D59C): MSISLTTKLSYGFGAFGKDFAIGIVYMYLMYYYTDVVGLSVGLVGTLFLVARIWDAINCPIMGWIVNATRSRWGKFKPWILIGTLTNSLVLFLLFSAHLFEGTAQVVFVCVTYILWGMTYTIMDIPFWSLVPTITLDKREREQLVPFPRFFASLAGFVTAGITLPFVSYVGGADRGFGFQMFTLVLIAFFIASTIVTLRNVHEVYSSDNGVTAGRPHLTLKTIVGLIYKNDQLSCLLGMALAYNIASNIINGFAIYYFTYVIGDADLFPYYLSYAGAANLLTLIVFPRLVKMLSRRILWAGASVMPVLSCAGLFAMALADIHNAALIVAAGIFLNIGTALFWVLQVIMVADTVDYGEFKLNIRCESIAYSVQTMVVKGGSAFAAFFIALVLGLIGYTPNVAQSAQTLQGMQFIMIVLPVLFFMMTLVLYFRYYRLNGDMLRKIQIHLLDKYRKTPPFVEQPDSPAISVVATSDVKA
Experimental: as §1, with “Both are α-galactosides containing a substituent at the anomeric carbon-1. The data were from duplicate measurements.” left out

D59A MelBSt = target: T3, D59A MelBSt (Salmonella typhimurium, UniProt P30878, D59A); assay: Trp→dansyl galactoside (D2G) FRET time trace (D59A); type: binding; settings: no Na+ or Li+ stimulation
T3 construct: Cys scanning mutagenesis for the full-length MelBSt; His10 (C); made in house; host or cells: E. coli DW2
T3 sequence (P30878 whole entry D59A): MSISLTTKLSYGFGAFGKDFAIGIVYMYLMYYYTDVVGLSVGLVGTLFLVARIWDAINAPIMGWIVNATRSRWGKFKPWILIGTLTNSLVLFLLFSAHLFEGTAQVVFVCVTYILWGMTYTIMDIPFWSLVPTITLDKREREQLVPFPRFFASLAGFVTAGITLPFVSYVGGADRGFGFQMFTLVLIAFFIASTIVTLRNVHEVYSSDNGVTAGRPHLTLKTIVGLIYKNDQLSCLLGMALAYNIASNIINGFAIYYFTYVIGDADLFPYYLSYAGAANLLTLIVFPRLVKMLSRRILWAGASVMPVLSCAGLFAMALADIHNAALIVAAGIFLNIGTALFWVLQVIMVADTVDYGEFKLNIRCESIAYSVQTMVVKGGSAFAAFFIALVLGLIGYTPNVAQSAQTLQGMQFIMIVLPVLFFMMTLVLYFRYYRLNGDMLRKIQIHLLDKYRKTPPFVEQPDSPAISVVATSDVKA
Experimental: Fig. 1 Functional characterizations. a [^3H] Melibiose transport time course with intact cells. E. coli DW2 strain (melB^−, lacZ^−Y^−) expressed with the WT, D59C, or D59A MelBSt mutants were subjected to [^3H]melibiose active transport assay at 0.4 mM and 10 mCi/mmol in the presence of 20 mM or 100 mM NaCl or LiCl by a fast filtration method. Inset, melibiose fermentation assay. Transformants with DW2 strain were plated on MacConkey agar plates containing 30 mM melibiose as the sole carbohydrate source and pH sensor neutral red, and incubated at 37 °C for 16–18 h before imaging. Number of tests = 3, from different batch of cells or duplicate measurements from same batch of sample. b Ligand binding by Trp→dansyl galactoside (D^2G) FRET assay. Purified proteins at 1 μM concentration in 20 mM Tris-HCl, pH 7.5, 100 mM CholCl, 10% glycerol, and 0.03% UDM were subjected to steady-state fluorescence measurements as described in Methods. […]
Steady-state fluorescence measurements were performed with an AMINCO-Bowman series 2 spectrometer with purified MelBSt at 1 μM in 20 mM Tris-HCl, pH 7.5, 100 mM CholCl, 10% glycerol, 0.03% UDM. Using an excitation wavelength at 290 nm, the emission intensity was recorded at 490 nm. […]

T1 sequence (P30878 whole entry): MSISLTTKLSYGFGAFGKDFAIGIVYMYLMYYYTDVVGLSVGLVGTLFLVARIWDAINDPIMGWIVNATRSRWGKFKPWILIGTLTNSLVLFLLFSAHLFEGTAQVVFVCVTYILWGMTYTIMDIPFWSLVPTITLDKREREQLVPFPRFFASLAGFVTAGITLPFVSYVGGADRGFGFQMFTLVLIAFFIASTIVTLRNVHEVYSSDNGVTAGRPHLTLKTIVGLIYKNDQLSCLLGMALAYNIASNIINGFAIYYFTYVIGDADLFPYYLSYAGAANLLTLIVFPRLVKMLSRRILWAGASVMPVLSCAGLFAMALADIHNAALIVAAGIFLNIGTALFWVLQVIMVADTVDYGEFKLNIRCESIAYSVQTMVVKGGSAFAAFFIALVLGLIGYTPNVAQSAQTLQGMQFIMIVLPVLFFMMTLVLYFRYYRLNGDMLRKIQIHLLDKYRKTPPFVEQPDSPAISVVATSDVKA

OC[C@H]1O[C@H](OCC2O[C@@H](O)[C@H](O)[C@@H](O)[C@@H]2O)[C@H](O)[C@@H](O)[C@H]1O (stereo partly drawn) [Melibiose]
Melibiose transport (MelBSt WT; H+, Time 0.08333): 4.65 | Melibiose transport (MelBSt WT; H+, Time 0.16667): 11.5871 | Melibiose transport (MelBSt WT; H+, Time 0.5): 17.8175 | Melibiose transport (MelBSt WT; H+, Time 1): 26.1053 | Melibiose transport (MelBSt WT; H+, Time 2): 32.522 | Melibiose transport (MelBSt WT; H+, Time 5): 41.2117 | Melibiose transport (MelBSt WT; H+, Time 10): 51.4376 | Melibiose transport (MelBSt WT; H+, Time 30): 52.9751 | Melibiose transport (MelBSt WT; Li+, 20 mM, Time 0.08333): 5.082 | Melibiose transport (MelBSt WT; Li+, 20 mM, Time 0.16667): 9.37 | Melibiose transport (MelBSt WT; Li+, 20 mM, Time 0.5): 20.2553 | Melibiose transport (MelBSt WT; Li+, 20 mM, Time 1): 29.5856 | Melibiose transport (MelBSt WT; Li+, 20 mM, Time 2): 49.8958 | Melibiose transport (MelBSt WT; Li+, 20 mM, Time 5): 106.047 | Melibiose transport (MelBSt WT; Li+, 20 mM, Time 10): 190.811 | Melibiose transport (MelBSt WT; Li+, 20 mM, Time 30): 313.001 | Melibiose transport (MelBSt WT; Li+, 100 mM, Time 0.08333): 13.3342 | Melibiose transport (MelBSt WT; Li+, 100 mM, Time 0.16667): 15.8108 | Melibiose transport (MelBSt WT; Li+, 100 mM, Time 0.5): 32.509 | Melibiose transport (MelBSt WT; Li+, 100 mM, Time 1): 62.5704 | Melibiose transport (MelBSt WT; Li+, 100 mM, Time 2): 85.8864 | Melibiose transport (MelBSt WT; Li+, 100 mM, Time 5): 142.587 | Melibiose transport (MelBSt WT; Li+, 100 mM, Time 10): 325.223 | Melibiose transport (MelBSt WT; Li+, 100 mM, Time 30): 437.5 | Melibiose transport (MelBSt WT; Na+, 20 mM, Time 0.08333): 6.156 | Melibiose transport (MelBSt WT; Na+, 20 mM, Time 0.16667): 13.1731 | Melibiose transport (MelBSt WT; Na+, 20 mM, Time 0.5): 23.5532 | Melibiose transport (MelBSt WT; Na+, 20 mM, Time 1): 28.6147 | Melibiose transport (MelBSt WT; Na+, 20 mM, Time 2): 46.7036 | Melibiose transport (MelBSt WT; Na+, 20 mM, Time 5): 103.453 | Melibiose transport (MelBSt WT; Na+, 20 mM, Time 10): 203.925 | Melibiose transport (MelBSt WT; Na+, 20 mM, Time 30): 320.843 | Melibiose transport (MelBSt WT; Na+, 100 mM, Time 0.08333): 7.0516 | Melibiose transport (MelBSt WT; Na+, 100 mM, Time 0.16667): 7.9788 | Melibiose transport (MelBSt WT; Na+, 100 mM, Time 0.5): 20.0324 | Melibiose transport (MelBSt WT; Na+, 100 mM, Time 1): 44.6398 | Melibiose transport (MelBSt WT; Na+, 100 mM, Time 2): 78.2935 | Melibiose transport (MelBSt WT; Na+, 100 mM, Time 5): 118.81 | Melibiose transport (MelBSt WT; Na+, 100 mM, Time 10): 202.959 | Melibiose transport (MelBSt WT; Na+, 100 mM, Time 30): 340.508 | melibiose fermentation (colony colour) (D59C MelBSt): normal melibiose fermentation with red colonies

O=[N+]([O-])c1ccc(OC2OC(CO)C(O)C(O)C2O)cc1 [α-NPG, 4-nitrophenyl-α-D-galactopyranoside]
ligand binding by Trp→D2G FRET (D59A MelBSt): binds

Reference: paper PMC8329300, “X-ray crystallography reveals molecular recognition mechanism for sugar binding in a melibiose transporter MelB” (Communications Biology, 2021)
